For data set [1], the system named is hepatocellular carcinoma (HEPG2). The data set can be described thus: SRB growth inhibition assay, HEPG2. The format is cell-based. The conditions noted are these: Homo sapiens, HEPG2 cells, 100 μg/mL, 48 h incubation, read-out: growth inhibition percentage. As to the method: (§1) The antitumor activities of the bis-(organoselanyl urea)aryl agent against all tested cell lines were evaluated by sulphorhodamine-B (SRB) assay. Briefly, cells were seeded at a density of 3×10^3 cells/well in 96-well microtiter plates. They were left to attach for 24 h before incubation with the aforementioned compound. Next, cells were treated with 100 μg/mL for bis-(organoselanyl urea)aryl agent. For each concentration, three wells were used, and incubation was continued for 48 h. DMSO was used as a control vehicle (1% v/v). At the end of incubation, cells were fixed with 20% trichloroacetic acid and stained with 0.4% SRB dye. The optical density (O.D.) of each well was measured spectrophotometrically at 570 nm using an ELISA microplate reader (TECAN Sunrise™, Germany). The mean survival fraction at each drug concentration was calculated as follows: O.D. of the treated cells/O.D. of the control cells. The IC50 (concentration that produces 50% of cell growth inhibition) value of bis-(organoselanyl urea)aryl agent was calculated using sigmoidal dose-response curve-fitting models.

Data set [2] deals with hepatocellular carcinoma (HuH7). The data set can be described thus: SRB growth inhibition assay, HuH7. The format is cell-based. To be noted: Homo sapiens, Huh-7, HuH7 cells, 100 μg/mL, 48 h incubation, read-out: growth inhibition percentage. As to the method:
as §1

In data set [3] the test system is human skin fibroblast normal cell (HSF). The conditions noted are these: 48 h, 100 μg/mL. As to the method: as §1
Data set [4] has as its system normal oral epithelial cell line (OEC). The conditions noted are these: 48 h, 100 μg/mL. How it is done: as §1
Data set [5] has as its system non-small cell lung cancer (A549). The data set can be described thus: SRB growth inhibition assay, A549. The format is cell-based. To be noted: Homo sapiens, A549 cells, 100 μg/mL, 48 h incubation, read-out: growth inhibition percentage. As to the method:
as §1

For data set [6], the system named is pharynx squamous carcinoma (FaDu). As to the kind of experiment: SRB growth inhibition assay, FaDu. The format is cell-based. To be noted: Homo sapiens, FaDu cells, 100 μg/mL, 48 h incubation, read-out: growth inhibition percentage. As to the method: as §1
The subject of data set [7] is colorectal carcinoma (HCT116). As to the kind of experiment: SRB growth inhibition assay, HCT116. The format is cell-based. The conditions noted are these: Homo sapiens, HCT-116, HCT116 cells, 100 μg/mL, 48 h incubation, read-out: growth inhibition percentage. As to the method: as §1
The next data set has as its system melanoma cancer (A375). As to the kind of experiment: SRB growth inhibition assay, A375. Format: cell-based. To be noted: Homo sapiens, A-375, A375 cells, 100 μg/mL, 48 h incubation, read-out: growth inhibition percentage. How it is done:
as §1

The subject of data set [8] is human squamous cell carcinoma of the oral tongue (HN9). The data set can be described thus: SRB growth inhibition assay, HN9. Format: cell-based. The conditions noted are these: HN9 cells, 100 μg/mL, 48 h incubation, read-out: growth inhibition percentage. As to the method: as §1
For data set [9], the system named is breast cancer cell line (MCF7). The data set can be described thus: SRB growth inhibition assay, MCF7. Format: cell-based. To be noted: Homo sapiens, MCF7 cells, 100 μg/mL, 48 h incubation, read-out: growth inhibition percentage. As to the method:
as §1

Regarding `C[Se]c1ccc(NC(=O)Nc2ccc(Cc3ccc(NC(=O)Nc4ccc([Se]C)cc4)cc3)cc2)cc1` [HB190, 1,1′-(methylenebis(4,1-phenylene))bis(3-(4-(methylselanyl)phenyl)urea)], the inhibition at 100 µg/mL in data set [1] came to 76.2%; in [2], 88.6%; in [5], 74.4%; in data set [6] it was 77.3%; in data set [7], 85.3%; in the data set on melanoma cancer (A375), 66.8%. Also, the inhibition at 100 µg/mL in [8] came out at 74%; in data set [9] it was 67.7%. For the same compound, the “growth inhibition percentage (safety, normal cells)” value in data set [3] is recorded as 9.76%; in [4] it was 7.32%.
Take `COc1cccc2c1C(=O)c1c(O)c3c(c(O)c1C2=O)C[C@@](O)(C(=O)CO)C[C@@H]3O[C@H]1C[C@H](N)[C@H](O)[C@H](C)O1` [doxorubicin, reference compound]: the inhibition at 100 µg/mL turned out to be 55.6% in [1]; 68% in data set [2]; 39.1% in data set [5]; 79.3% in [6]; 64.3% in data set [7]; 78.2% with melanoma cancer (A375). Moreover, the results for the inhibition at 100 µg/mL in data set [8] and in [9] were 51.7% and 58.6%, respectively.

The inhibition is how much of the control response was suppressed.

The record behind these values is US12466790B1, “Bis urea-based organoselenium compound and method for treating cancer” (IMAM MOHAMMAD IBN SAUD ISLAMIC UNIVERSITY, priority 2024, dated 2025).
